Results from US11932652B2, “Pyrrolidinyl urea derivatives and application thereof in TrkA-related diseases” (ZHANGZHOU PIEN TZE HUANG PHARMACEUTICAL CO., LTD., priority 2018, dated 2024).

Legend:
[1] = In vivo pharmacokinetics in mice after single administration; design: species or system CD-1 mice
Experimental: Male CD-1 mice were used as test animals, the concentration of the compound in blood was determined after single administration to evaluate the pharmacokinetic behavior.
CD-1 mice (male, 20-40 g, 6-9 weeks, Shanghai Sippr-Bk Laboratory Animal Co., Ltd.)
The pharmacokinetic characteristics of the test compound in rodents after intravenous injection and oral administration were tested by standard protocols, in the experiment, the test compound was prepared into a clear solution or homogeneous suspension, and administered to the mice by single intravenous injection and oral administration. […] The plasma sample was added to acetonitrile solution containing the internal standard with a volume 20 times that of the plasma sample to precipitate proteins, and then centrifuged; the supernatant was separated, and water with a volume twice that of the supernatant was added to the supernatant, which was then centrifuged again; the supernatant was collected for analysis; LC-MS/MS analysis method was used to quantitatively analyze the blood drug concentration, and Phoenix WinNonlin software (Pharsight, USA) was used to calculate the pharmacokinetic parameters, such as peak concentration, time to peak concentration, clearance rate, half-life, area under the concentration-time curve, bioavailability, etc. […]

[2] = system: plasma protein; assay: Plasma protein binding rate (PPB) test, human plasma; assay type: in vitro ADME; conditions: 2 μM, dialysis 37° C. 4 hours
Experimental: The protein binding rates of the test compound in the plasma of humans, SD rats and Beagle dogs were determined.
796 μL of blank plasma from humans, SD rats and Beagle dogs (plasma purchased from BioreclamationIVT) were taken, 4 μL of working solution of the test compound (400 μM) or warfarin working solution (400 μM) was added and the final concentration of the test compound or warfarin was 2 μM. The sample was mixed thoroughly. The final concentration of organic phase DMSO was 0.5%; 50 μL of the plasma sample treated with the test compound or warfarin was pipetted into the sample receiving plate, and a corresponding volume of blank plasma or buffer was added immediately so that the final volume in each sample well was 100 μL, the volume ratio of plasma:dialysis buffer was 1:1; 400 μL of stop solution was added to these samples, and these samples were used as T0 samples for recovery and stability determination. To samples were stored at 2° C. to 8° C. for subsequent processing together with other dialyzed samples; 150 μL of the plasma sample treated with the test compound or warfarin was added into the dosing end of each dialysis hole, and 150 μL of blank dialysis buffer was added to the receiving end corresponding to the dialysis hole. Then the dialysis plate was sealed with gas-permeable membrane and placed in a humidified 5% CO2 incubator, and incubated at 37° C. with 100 rpm shaking for 4 hours. After the dialysis, 50 μL of the dialysis buffer sample and the dialysis plasma sample was transferred to a new sample receiving plate. […] All samples were analyzed by LC/MS/MS after protein precipitation, and the plasma protein unbound rate, binding rate and recovery rate was calculated according to the following formula: % unbound rate=100*free compound concentration at the membrane buffer side/total compound concentration at the membrane plasma side, % protein binding rate=100-% unbound rate, % recovery rate=100*(free compound concentration at the membrane buffer side+total compound concentration at the membrane plasma side)/total compound concentration before dialysis.

[3] = In vivo pharmacokinetics in rats after single administration; conditions: male, Sprague-Dawley, rat, plasma, 10 mg/kg, 10 mpk oral administration
Experimental: Male SD rats were used as test animals, and the concentration of the compound in blood was determined after single administration to evaluate the pharmacokinetic behavior.
Sprague Dawley rats (male, 200-300 g, 7-9 weeks, Shanghai Charles River Laboratory Animal Co., Ltd.)
The pharmacokinetic characteristics of the test compound in rodents after intravenous injection and oral administration were tested by standard protocols, in the experiment, the test compound was prepared into a clear solution or homogeneous suspension, and administered to the rats by single intravenous injection and oral administration. In the intravenous injection group, the menstruum was a certain proportion of ethanol and physiological saline solution or a certain proportion of dimethyl sulfoxide in HP-β cyclodextrin solution (pH was adjusted to 3-4), the mixture was vortexed and stirred to prepare 2 mg/mL or 1 mg/mL clear solution, then filtered with microporous membrane for later use; in the oral administration group, the menstruum was a certain proportion of sodium carboxymethyl cellulose solution or a certain proportion of dimethyl sulfoxide in HP-0 cyclodextrin solution (pH was adjusted to about 4), after the test compound was mixed with the solvent, the mixture was vortexed and stirred to prepare 2 mg/mL or 1 mg/mL homogeneous suspension or clear solution for later use. After 2 mg/kg intravenous administration or 10 mg/kg oral administration to rats, a certain amount of whole blood samples were collected, centrifuged at 3000 g for 15 minutes, the supernatant was separated to give the plasma samples; then an acetonitrile solution containing internal standard with a volume 3 times that of the plasma sample was added to precipitate proteins, and then centrifuged; the supernatant was separated, and water with a volume twice that of the supernatant was added to the supernatant, which was then centrifuged again; the supernatant was collected for analysis; LC-MS/MS analysis method was used to quantitatively analyze the blood drug concentration, and Phoenix WinNonlin software (Pharsight, USA) was used to calculate the pharmacokinetic parameters, such as peak concentration, time to peak concentration, clearance rate, half-life, area under the concentration-time curve, bioavailability, etc.
Among them, C0 is the initial concentration, T1/2 is the elimination half-life, Vdss is the steady-state apparent volume of distribution, Cl is the total clearance rate, AUC0-inf is the area under the plasma drug concentration-time curve from time 0 to infinity, Cmax is the peak concentration, Tmax is the time to peak concentration.

COCCN1C[C@@H](n2ccc(F)c2)[C@H](NC(=O)Nc2c(C)c(-c3cnc(C4(F)COC4)nc3)nn2-c2ccccc2)C1 [Compound 7]
pharmacokinetic properties and oral bioavailability (in words) [1]: good pharmacokinetic properties and oral bioavailability
Plasma protein unbound rate, Human plasma [2]: 13.2%
AUC(0-inf) [3]: 3.24 µM·h
Cmax [3]: 1790 nM
Tmax [3]: 0.63 h
bioavailability [3]: 24.8%
half-life [3]: 1.6 h
